Consider one compound from US10322114B2 (Above and Beyond NB LLC, priority 2017, dated 2019).

Setting [1] is: oral 1.3 mg/kg BID 14 days versus IT 0.25 mg/hour 5 days, higher in oral.

Excerpt: Animals were then sacrificed and a necropsy was immediately performed.
After stopping the 5-day treatment, animals were sacrificed and a necropsy was immediately performed. […] One hour after stopping the 14-day treatment, animals were sacrificed and a necropsy was immediately performed.
Animals were then sacrificed and a necropsy was immediately performed. […] Animals were then sacrificed and a necropsy was immediately performed.

Take `Nc1nc2ccc(OC(F)(F)F)cc2s1` [Riluzole, 2-Amino-6-(trifluoromethoxy)benzothiazole]: the “riluzole accumulation in the spinal cord, IT-treated compared to oral-treated dogs” value (IT 0.25 mg/hour 5 days versus oral 1.3 mg/kg BID 14 days, higher in IT) was “approximately 4 fold”. The “riluzole level in CSF, oral-treated compared to IT-treated dogs” value (oral 1.3 mg/kg BID 14 days versus IT 0.25 mg/hour 5 days) is “similar”. Moreover, under setting [1], the “riluzole level in plasma, oral-treated compared to IT-treated dogs” value is listed as “approximately 20 fold” and the “riluzole level in urine, oral-treated compared to IT-treated dogs” value is reported as “approximately 3 fold”.
